Measurements from patent publication US12729192B2, “CDK9 inhibitor and use thereof” (PHARMABLOCK SCIENCES (NANJING), INC., priority 2020, dated 2026).
Where two headings read alike, the source gives them in different places.

Assays:
CDK2 = target: T1, CDK2 (Homo sapiens, UniProt P24941); assay: CDK2 kinase activity inhibition (ADP-Glo); format: biochemical; details: 10 μM ATP, 2 h at room temperature
T1 construct: purchased Carna Biosciences, Inc
Description: (§1) CDK9 kinase was manufactured by the company or commercially available. CDK1, CDK2 and CDK7 were purchased from Carna Biosciences, Inc. ADP-Glo™ kit was purchased from Promega Corporation. Dithiothreitol (DTT), Tween-20, dimethylsulfoxide (DMSO), bovine serum albumin (BSA) and Tris base were obtained from Sigma at the available highest level of purity.
(§2) General procedures for CDK inhibition determination: The determination was performed in a buffer consisting of 50 μM DTT, 0.1% BSA, 40 mM Tris-HCl pH=7.5 and 20 mM MgCl2. The compound dissolved in DMSO and CDK enzymes were diluted with the buffer. 1 μL of the compound solution in 5% DMSO and 2 μL of the CDK enzyme solution were added to a white low-volume 384-well microtiter plate and incubated for 20 min at room temperature. Ultra pure ATP and the substrate polypeptide (purchased from GenScript Biotech Corporation) were diluted together into the buffer and added to a mixed solution of the compound and the enzyme, 2 μL per well. They were incubated for 2 h at room temperature.
(§3) After the reaction was completed, 5 μL of ADP-Glo™ reagent was added to each well and incubated for 40 min at room temperature, and then 10 μL of test reagent was added to each well and incubated for 30 mi at room temperature. Chemical luminescence values were measured by using a Tecan (Männedorf, Switzerland) multifunctional plate reader Spark for plate reading. The IC50 value of the inhibitor was obtained by fitting the chemical luminescence intensity ratio in the S-shaped dosage reaction curve using Prism 7 (La Jolla, 15 CA) relative to the concentration of the inhibitor.

CDK7 = target: T2, CDK7 (Homo sapiens, UniProt P50613); assay: CDK7 kinase activity inhibition (ADP-Glo); format: biochemical; details: 10 μM ATP, 2 h at room temperature
T2 construct: purchased Carna Biosciences, Inc
T2 sequence (P50613 whole entry): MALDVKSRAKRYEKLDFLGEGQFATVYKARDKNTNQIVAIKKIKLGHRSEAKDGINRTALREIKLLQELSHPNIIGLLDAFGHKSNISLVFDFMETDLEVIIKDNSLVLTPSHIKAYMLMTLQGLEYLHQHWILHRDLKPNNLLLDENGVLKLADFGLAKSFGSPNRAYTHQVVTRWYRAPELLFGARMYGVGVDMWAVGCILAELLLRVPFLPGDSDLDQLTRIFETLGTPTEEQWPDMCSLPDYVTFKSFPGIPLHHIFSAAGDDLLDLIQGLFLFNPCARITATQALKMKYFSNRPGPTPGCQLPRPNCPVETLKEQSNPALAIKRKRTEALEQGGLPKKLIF
T2 sequence (P51946 whole entry partner): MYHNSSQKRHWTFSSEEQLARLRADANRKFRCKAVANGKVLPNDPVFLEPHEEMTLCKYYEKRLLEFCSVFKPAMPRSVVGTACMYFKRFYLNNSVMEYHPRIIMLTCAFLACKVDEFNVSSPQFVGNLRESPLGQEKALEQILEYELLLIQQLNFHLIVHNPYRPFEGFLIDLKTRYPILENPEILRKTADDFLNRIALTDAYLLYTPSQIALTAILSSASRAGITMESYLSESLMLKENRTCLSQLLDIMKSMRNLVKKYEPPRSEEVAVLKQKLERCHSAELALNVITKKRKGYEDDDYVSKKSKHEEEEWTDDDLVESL
T2 sequence (P51948 whole entry partner): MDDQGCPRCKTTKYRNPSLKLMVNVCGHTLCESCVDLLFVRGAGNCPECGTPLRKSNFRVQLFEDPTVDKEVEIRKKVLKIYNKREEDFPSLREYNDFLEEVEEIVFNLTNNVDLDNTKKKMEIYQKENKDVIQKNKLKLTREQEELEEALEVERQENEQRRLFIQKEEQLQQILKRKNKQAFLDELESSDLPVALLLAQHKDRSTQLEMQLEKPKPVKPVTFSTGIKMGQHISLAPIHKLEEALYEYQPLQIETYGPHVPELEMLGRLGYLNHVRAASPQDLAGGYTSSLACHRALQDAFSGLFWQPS
Description: as §1, §2, §3

CDK1 = target: T3, CDK1 (Homo sapiens, UniProt P06493); assay: CDK1 kinase activity inhibition (ADP-Glo); format: biochemical; details: 50 μM ATP, 2 h at room temperature
T3 construct: purchased Carna Biosciences, Inc
T3 sequence (P06493 whole entry): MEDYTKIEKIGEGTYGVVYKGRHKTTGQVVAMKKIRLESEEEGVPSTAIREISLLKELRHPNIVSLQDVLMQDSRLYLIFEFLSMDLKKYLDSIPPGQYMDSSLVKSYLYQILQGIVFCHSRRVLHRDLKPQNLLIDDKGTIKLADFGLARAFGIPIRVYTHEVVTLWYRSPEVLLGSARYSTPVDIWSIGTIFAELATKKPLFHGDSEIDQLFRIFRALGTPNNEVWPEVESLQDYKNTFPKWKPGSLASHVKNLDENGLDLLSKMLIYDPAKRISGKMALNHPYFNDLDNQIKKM
T3 sequence (P14635 whole entry partner): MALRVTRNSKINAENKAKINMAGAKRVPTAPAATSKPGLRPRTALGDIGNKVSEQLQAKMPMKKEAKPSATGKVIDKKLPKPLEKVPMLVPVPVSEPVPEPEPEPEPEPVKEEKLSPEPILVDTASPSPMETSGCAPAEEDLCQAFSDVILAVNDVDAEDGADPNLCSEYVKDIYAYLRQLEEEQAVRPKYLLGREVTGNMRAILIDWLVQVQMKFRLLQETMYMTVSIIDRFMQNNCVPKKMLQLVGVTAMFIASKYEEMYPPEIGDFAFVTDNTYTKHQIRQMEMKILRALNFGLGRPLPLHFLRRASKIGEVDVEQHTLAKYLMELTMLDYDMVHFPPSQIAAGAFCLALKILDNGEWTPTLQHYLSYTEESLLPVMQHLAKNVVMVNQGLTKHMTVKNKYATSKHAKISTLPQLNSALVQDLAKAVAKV
Description: as §1, §2, §3

MOLM-13 cells = assay: Tumor cell proliferation inhibition experiment (CellTiter-Glo); format: cell-based; details: Homo sapiens, read-out: MOLM-13 (nM) IC50, cell proliferation inhibition
Source text: An acute myeloid leukemia (AML) cell line (MOLM-13) was purchased from NANJING COBIOER BIOSCIENCES CO., LTD. An RPMI1640 medium and a penicillin-streptomycin double-antibody were purchased from ThermoFisher (Waltham, MA, USA). Certified fetal bovine serum (FBS) was purchased from Biological Industries (Israel). A Corning 384-well cell culture plate was purchased from CORNING (USA). Cell-Titer Glo® was purchased from Promega Corporation (Madison, WI, USA).
To evaluate the ability of the synthetic compound to inhibit the proliferation of MOLM-13 cells, MOLM-13 cells at an exponential growth stage were inoculated at a density of 500,000 cell/mL in the RPMI1640 medium containing 20% bovine serum and 1% penicillin-streptomycin double-antibody, and the 384-well plate contained 20 μL per well and placed overnight in an 37° C., 5% CO2 incubator. Compound powder was dissolved in DMSO to prepare a storage mother liquor with a concentration of 2 mM, and 12 dilutions with three-fold gradient concentrations were further prepared. 1 μL of gradient-diluted DMSO solution was added to 99 μL of cell culture medium (the final maximum concentration of the compound in the assay was 10 uM and the final concentration of DMSO was 0.5%). 20 μL of compound solution in the medium was added at gradients to each cell-coated test well of the 384-well plate. After the compound solution was added, the 384-well plate was incubated for 16 h in a 37° C., 5% CO2 incubator. Cell viability was determined by quantifying ATPs present in test wells using the CellTiter-Glo kit from Promega (Madison, WI, USA). After 20 minutes of incubation, readings were obtained under a chemical luminescence procedure using Tecan's Spark multifunctional plate reader. The concentration (IC50 value) of the compound at which the cell survival rate was inhibited by 50% was determined using an S-shaped dosage response model (variable slope, four parameters) in Prism 7 (LaJolla, CA).

CDK9 = CDK9 (Homo sapiens, UniProt P50750); assay: CDK9 kinase activity inhibition (ADP-Glo); format: biochemical; details: 10 μM ATP, 2 h at room temperature
CDK9, sequence (P50750 whole entry): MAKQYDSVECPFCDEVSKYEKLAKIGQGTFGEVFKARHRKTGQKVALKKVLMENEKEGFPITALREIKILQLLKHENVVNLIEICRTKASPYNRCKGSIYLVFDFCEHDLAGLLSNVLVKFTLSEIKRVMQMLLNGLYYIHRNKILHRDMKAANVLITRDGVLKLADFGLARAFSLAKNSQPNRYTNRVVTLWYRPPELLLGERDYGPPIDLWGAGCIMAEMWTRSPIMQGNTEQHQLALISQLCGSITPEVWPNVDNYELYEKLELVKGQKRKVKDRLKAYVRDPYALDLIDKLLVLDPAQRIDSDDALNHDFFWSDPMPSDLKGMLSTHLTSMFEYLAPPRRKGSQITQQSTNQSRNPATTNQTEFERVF
CDK9, sequence (O60563 whole entry partner): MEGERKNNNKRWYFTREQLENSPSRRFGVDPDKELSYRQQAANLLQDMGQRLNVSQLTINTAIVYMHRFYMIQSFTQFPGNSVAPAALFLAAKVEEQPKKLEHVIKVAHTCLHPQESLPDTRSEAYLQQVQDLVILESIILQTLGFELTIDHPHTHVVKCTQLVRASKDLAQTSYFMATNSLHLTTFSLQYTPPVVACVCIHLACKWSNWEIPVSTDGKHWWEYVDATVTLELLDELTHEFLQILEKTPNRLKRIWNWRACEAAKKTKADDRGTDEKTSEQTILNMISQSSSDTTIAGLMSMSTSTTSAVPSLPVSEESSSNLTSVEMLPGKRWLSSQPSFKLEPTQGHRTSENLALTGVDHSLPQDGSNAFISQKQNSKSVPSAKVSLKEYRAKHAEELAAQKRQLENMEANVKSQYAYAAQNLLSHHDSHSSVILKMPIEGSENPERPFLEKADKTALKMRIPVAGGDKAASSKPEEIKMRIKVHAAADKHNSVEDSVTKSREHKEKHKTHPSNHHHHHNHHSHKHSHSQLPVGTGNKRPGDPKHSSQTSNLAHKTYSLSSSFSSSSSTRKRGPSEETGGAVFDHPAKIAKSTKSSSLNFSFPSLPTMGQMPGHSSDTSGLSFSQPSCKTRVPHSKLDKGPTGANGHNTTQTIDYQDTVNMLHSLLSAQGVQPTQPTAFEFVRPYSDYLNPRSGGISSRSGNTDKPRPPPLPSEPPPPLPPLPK
Description: as §1, §2, §3

[1] = acute myeloid leukemia cell line MOLM-13, 16 h incubation, CellTiter-Glo

Row | IC50 (CDK2) | IC50 (CDK7) | IC50 (CDK1) | IC50 (MOLM-13 cells; [1]) | IC50 (CDK9) | SMILES | IC50 (MOLM-13 cells; MOLM-13, 16 h)
1 | 811 nM | 4290 nM | 570 nM | 118 nM | – | COc1cc(F)ccc1-c1cc(Nc2cc(CS(C)(=N)=O)ccn2)ncc1F (centres unmarked) [BAY1251152, reference compound] | –
2 | 36.7 nM | 1950 nM | – | 24.8 nM | 4.9 nM | CC(=O)NC[C@H]1CCC(F)(F)CN1C(=O)c1nc(Nc2cc(C#N)ccn2)ccc1C [Compound 1, (R)—N-((1-(6-((4-cyanopyridin-2-yl)amino)-3-methylpyridine-2-carbonyl)-5,5-difluoropiperidin-2-yl)methyl)acetamide] | –
3 | 408 nM | 8760 nM | > 10000 nM | 70.9 nM | 7.1 nM | CC(=O)NC[C@H]1CCC(F)(F)CN1C(=O)c1nc(Nc2cc(Cl)ccn2)ccc1C [Compound 24, (R)—N-((1-(6-((4-chloropyridin-2-yl)amino)-3-methylpyridine-2-carbonyl)-5,5-difluoropiperidin-2-yl)methyl)acetamide] | –
4 | 120 nM | – | – | 120 nM | 6.3 nM | CC(=O)NC[C@H]1CCC(F)(F)CN1C(=O)c1nc(Nc2cc(OC(F)(F)F)ccn2)ccc1F [Compound 64, (R)—N-((5,5-difluoro-1-(3-fluoro-6-((4-(trifluoromethoxy)pyridin-2-yl)amino)pyridine-2-carbonyl)piperidin-2-yl)methyl)acetamide] | –
5 | 61.2 nM | 656 nM | 140 nM | 66.8 nM | 6.8 nM | NC[C@H]1CCC(F)(F)CN1C(=O)c1nc(Nc2cc(OC(F)(F)F)ccn2)ccc1F [Compound 67, (R)-(2-(aminomethyl)-5,5-difluoropiperidin-1-yl)(3-fluoro-6-((4-(trifluoromethoxy)pyridin-2-yl)amino)pyridin-2-yl)methanone] | –

Second part, the compound before the results:

Row | SMILES | IC50 (CDK2) | IC50 (CDK7) | IC50 (CDK1) | IC50 (MOLM-13 cells; [1]) | IC50 (CDK9) | IC50 (MOLM-13 cells; MOLM-13, 16 h)
6 | CC(=O)N[C@@H]1CCC[C@H](C(=O)Nc2cc(-c3cnn4c3CC(C)(C)C4)c(Cl)cn2)C1 [AZD4573, reference compound] | 18.6 nM | 31.4 nM | 8.3 nM | 17.1 nM | – | –
7 | CC(=O)NC[C@H]1CCC(F)(F)CN1C(=O)c1nc(Nc2cc(OC(F)(F)F)ccn2)ccc1C [Compound 5, (R)—N-((5,5-difluoro-1-(3-methyl-6-((4-(trifluoromethoxy)pyridin-2-yl)amino)pyridine-2-carbonyl)piperidin-2-yl)methyl)acetamide] | 217 nM | 2600 nM | 350 nM | 27.9 nM | 5.8 nM | –
8 | CC(=O)NC[C@H]1CCC(F)(F)CN1C(=O)c1nc(Nc2cc(OC(F)F)ccn2)ccc1C [Compound 11, (R)—N-((1-(6-((4-(difluoromethoxy)pyridin-2-yl)amino)-3-methylpyridine-2-carbonyl)-5,5-difluoropiperidin-2-yl)methyl)acetamide] | 368 nM | 4350 nM | 755 nM | 45.3 nM | 5.1 nM | –
9 | CC(=O)NC[C@H]1CCC(F)(F)CN1C(=O)c1nc(Nc2cc([N+](=O)[O-])ccn2)ccc1C [Compound 19, (R)—N-((5,5-difluoro-1-(3-methyl-6-((4-nitropyridin-2-yl)amino)pyridine-2-carbonyl)piperidin-2-yl)methyl)acetamide] | 48.7 nM | 7780 nM | 106 nM | 24.2 nM | 9 nM | –
10 | CC(=O)NC[C@H]1CCC(F)(F)CN1C(=O)c1nc(Nc2cc(C(F)F)ccn2)ccc1C [Compound 27, (R)—N-((1-(6-((4-(difluoromethyl)pyridin-2-yl)amino)-3-methylpyridine-2-carbonyl)-5,5-difluoropiperidin-2-yl)methyl)acetamide] | 144 nM | 4570 nM | 426 nM | 22.1 nM | 5.8 nM | –
11 | CC(=O)NC[C@H]1CCC(F)(F)CN1C(=O)c1nc(Nc2cc(C(F)(F)F)ccn2)ccc1C [Compound 30, (R)—N-((5,5-difluoro-1-(3-methyl-6-((4-(trifluoromethyl)pyridin-2-yl)amino)pyridine-2-carbonyl)piperidin-2-yl)methyl)acetamide] | 99.3 nM | 3180 nM | 291 nM | 11.3 nM | 11.7 nM | –
12 | Cc1ccc(Nc2cc(OC(F)(F)F)ccn2)nc1C(=O)N1CC(F)(F)CC[C@@H]1CN [Compound 34, (R)-(2-(aminomethyl)-5,5-difluoropiperidin-1-yl)(3-methyl-6-((4-(trifluoromethoxy)pyridin-2-yl)amino)pyridin-2-yl)methanone] | 30 nM | 479 nM | 261 nM | 63.1 nM | 3 nM | –
13 | COC(=O)c1ccnc(Nc2ccc(C)c(C(=O)N3CC(F)(F)CC[C@@H]3CNC(C)=O)n2)c1 [Compound 56, (R)-2-((6-(2-(acetamidomethyl)-5,5-difluoropiperidine-1-carbonyl)-5-methylpyridin-2-yl)amino)methyl isonicotinate] | 924 nM | – | 3750 nM | – | 7.7 nM | 180 nM
14 | CC(=O)N[C@@H]1C[C@H](Nc2nc(Nc3cc(OC(F)(F)F)ccn3)ccc2C)CC(F)(F)C1 [Compound 60, N-((1R,5S)-3,3-difluoro-5-((3-methyl-6-((4-(trifluoromethoxy)pyridin-2-yl)amino)pyridin-2-yl)amino)cyclohexyl)acetamide] | 797 nM | – | – | 894 nM | 70.5 nM | –
15 | CC(=O)NC[C@H]1CCC(F)(F)CN1C(=O)c1cccc(Nc2cc(OC(F)(F)F)ccn2)n1 [Compound 80, (R)—N-((5,5-difluoro-1-(6-((4-(trifluoromethoxy)pyridin-2-yl)amino)pyridine-2-carbonyl)piperidin-2-yl)methyl)acetamide] | 258 nM | – | – | 198 nM | 7.2 nM | –
16 | CC(=O)NC[C@H]1CCC(F)(F)CN1C(=O)c1nc(Nc2cc(OC(F)(F)F)ccn2)ccc1Cl [Compound 84, (R)—N-((1-(3-chloro-6-((4-(trifluoromethoxy)pyridin-2-yl)amino)pyridine-2-carbonyl)-5,5-difluoropiperidin-2-yl)methyl)acetamide] | 577 nM | – | – | – | 6.2 nM | 58.6 nM
